# Experimental data: US11419852B2, “Beta-lactam compounds or salts thereof for use in long-acting prevention or treatment of a glucose metabolism disorder” (GLYCOLYSIS BIOMED CO., LTD., priority 2019, dated 2022)
# Marks after values point to notes of the source that are not given here.
# How the values were obtained:
# db/db mice [1] = experiment: Oral glucose tolerance test (OGTT); type: in vivo; design: OGTT AUC: unit not given here
# Description: Four to five weeks old db/db mice (BKS.Cg-Dock7^m+/+Lepr^db/JNarl) and m/m mice (BKS.Cg-Dock7^m+/Dock7^m+) were obtained from National Laboratory Animal Center ([…], Taiwan). […] PMI Nutrition International, Brentwood, Mo.) and water ad libitum. […] Blood was sampled from the tail vein, and FPG levels were measured and recorded as the basic blood glucose levels. […] The total area under the curve (AUC) in OGTT was plotted and calculated by the Area Under Coordinates Program (StatsToDo Server, Department of Obstetrics and Gynecology, Chinese University of Hong Kong).
# db/db mice [2] = experiment: Plasma biochemical parameters (AST, ALT, BUN, Cr, HbA1c); type: in vivo; conditions: Ex 3: db/db mice, daily dosing 3 weeks at doses of Table 10; week 9
# Description: Inflammatory markers such as serum aspartate aminotransferase (AST), alanine aminotransferase (ALT), blood urea nitrogen (BUN), creatinine (Cr), and hemoglobin Alc (HbAlc) were measured using a BMC-Hitachi 717 chemistry auto analyzer.
smiles,measurement,setting,value
"CN(C)C(=N)N=C(N)N [Met, metformin]",Oral glucose tolerance (OGT) of db/db mice,"db/db mice [1]; Ex 2, most time points (ertapenem: weeks 6 and 12)",no significant changes
same,Level of OGTT (blood glucose),"db/db mice [1]; Ex 2 G3 db/db, Met oral 0.3 mg/g bw/day, dosing 6 weeks, Week 6, 0 min",222 ± 30 mg/dL
same,Level of OGTT (blood glucose),"db/db mice [1]; Ex 2 G3 db/db, Met oral 0.3 mg/g bw/day, dosing 6 weeks, Week 6, 15 min",828 ± 33^bc
same,Level of OGTT (blood glucose),"db/db mice [1]; Ex 2 G3 db/db, Met oral 0.3 mg/g bw/day, dosing 6 weeks, Week 6, 30 min",832 ± 42^c
same,Level of OGTT (blood glucose),"db/db mice [1]; Ex 2 G3 db/db, Met oral 0.3 mg/g bw/day, dosing 6 weeks, Week 6, 60 min",710 ± 86^cd
same,Level of OGTT (blood glucose),"db/db mice [1]; Ex 2 G3 db/db, Met oral 0.3 mg/g bw/day, dosing 6 weeks, Week 6, 120 min",417 ± 42^cd
same,Level of OGTT (blood glucose),"db/db mice [1]; Ex 2 G3 db/db, Met oral 0.3 mg/g bw/day, dosing 6 weeks, Week 12, 0 min",267 ± 43^cd
same,Level of OGTT (blood glucose),"db/db mice [1]; Ex 2 G3 db/db, Met oral 0.3 mg/g bw/day, dosing 6 weeks, Week 12, 15 min",821 ± 47 mg/dL
same,Level of OGTT (blood glucose),"db/db mice [1]; Ex 2 G3 db/db, Met oral 0.3 mg/g bw/day, dosing 6 weeks, Week 12, 30 min",839 ± 40^cd
same,Level of OGTT (blood glucose),"db/db mice [1]; Ex 2 G3 db/db, Met oral 0.3 mg/g bw/day, dosing 6 weeks, Week 12, 60 min",741 ± 51^c
same,Level of OGTT (blood glucose),"db/db mice [1]; Ex 2 G3 db/db, Met oral 0.3 mg/g bw/day, dosing 6 weeks, Week 12, 120 min",564 ± 70^c
same,Level of OGTT (blood glucose),"db/db mice [1]; Ex 2 G3 db/db, Met oral 0.3 mg/g bw/day, dosing 6 weeks, Week 16, 0 min",215 ± 27 mg/dL
same,Level of OGTT (blood glucose),"db/db mice [1]; Ex 2 G3 db/db, Met oral 0.3 mg/g bw/day, dosing 6 weeks, Week 16, 15 min",611 ± 24 mg/dL
same,Level of OGTT (blood glucose),"db/db mice [1]; Ex 2 G3 db/db, Met oral 0.3 mg/g bw/day, dosing 6 weeks, Week 16, 30 min",703 ± 15 mg/dL
same,Level of OGTT (blood glucose),"db/db mice [1]; Ex 2 G3 db/db, Met oral 0.3 mg/g bw/day, dosing 6 weeks, Week 16, 60 min",637 ± 27 mg/dL
same,Level of OGTT (blood glucose),"db/db mice [1]; Ex 2 G3 db/db, Met oral 0.3 mg/g bw/day, dosing 6 weeks, Week 16, 120 min",444 ± 62^cd
same,Level of OGTT (blood glucose),"db/db mice [1]; Ex 2 G3 db/db, Met oral 0.3 mg/g bw/day, dosing 6 weeks, Week 18, 0 min",346 ± 58 mg/dL
same,Level of OGTT (blood glucose),"db/db mice [1]; Ex 2 G3 db/db, Met oral 0.3 mg/g bw/day, dosing 6 weeks, Week 18, 15 min",836 ± 58 mg/dL
same,Level of OGTT (blood glucose),"db/db mice [1]; Ex 2 G3 db/db, Met oral 0.3 mg/g bw/day, dosing 6 weeks, Week 18, 30 min",885 ± 73 mg/dL
same,Level of OGTT (blood glucose),"db/db mice [1]; Ex 2 G3 db/db, Met oral 0.3 mg/g bw/day, dosing 6 weeks, Week 18, 60 min",769 ± 55 mg/dL
same,Level of OGTT (blood glucose),"db/db mice [1]; Ex 2 G3 db/db, Met oral 0.3 mg/g bw/day, dosing 6 weeks, Week 18, 120 min",589 ± 67^bc
same,OGTT AUC,"db/db mice [1]; Ex 2 G3 db/db, Met oral 0.3 mg/g bw/day, dosing 6 weeks, week 6",1288 ± 93^c
same,OGTT AUC,"db/db mice [1]; Ex 2 G3 db/db, Met oral 0.3 mg/g bw/day, dosing 6 weeks, week 12",1391 ± 94^cd
same,OGTT AUC,"db/db mice [1]; Ex 2 G3 db/db, Met oral 0.3 mg/g bw/day, dosing 6 weeks, week 16",1143 ± 55^c
same,OGTT AUC,"db/db mice [1]; Ex 2 G3 db/db, Met oral 0.3 mg/g bw/day, dosing 6 weeks, week 18",1456 ± 85^b
same,OGTT AUC,"db/db mice [1]; Ex 3: db/db mice, daily dosing 3 weeks at doses of Table 10, Week 6 (stopped for 3 weeks)",1603 ± 46^c
same,OGTT AUC,"db/db mice [1]; Ex 3: db/db mice, daily dosing 3 weeks at doses of Table 10, Week 9 (stopped for 6 weeks)",1707 ± 43^f
same,ALT,db/db mice [2],116 ± 12^d U/L
same,AST,db/db mice [2],194 ± 17^e U/L
same,BUN,db/db mice [2],37 ± 1^b mg/dL
same,Creatinine,db/db mice [2],0.517 ± 0.01^e mg/dL
same,HbA1c,db/db mice [2],6.7 ± 0.2^e %
